Results published in patent US12606554B2, “Compounds and pharmaceutical compositions thereof for the treatment of diseases” (ONCO3R Therapeutics BV, priority 2019, dated 2026).

How the values were obtained:
SIK1 = target: T1, SIK1 (Homo sapiens, UniProt P57059); assay: ADP-Glo kinase assay, SIK1; type: biochemical; settings: AMARA peptide 45 μM, 5 μM ATP, 120 min, read-out: SIM1 IC50
T1 construct: purchased Carna Biosciences 02-131
From the text: (§1) The ADP-Glo™ kinase assay is a luminescent technology assay which measures the ADP formed from a kinase reaction. In this specific study, the kinase reactions consisted of the phosphorylation of the AMARA peptide substrate (SignalChem, Cat #A11-58) by SIK1 (Carma Biosciences, Cat #02-131), SIK2 (ThermoFisher Scientific, Cat #PV4792) or SIK3 (SignalChem, Cat #S12-11G-100). In a second step the kinase reactions are terminated and all the remaining ATP is depleted. In a final step the ADP is converted into ATP and this newly synthesized ATP is measured by using a luciferase/luciferin reaction. The generated light is measured using an Envision plate reader, wherein the luminescent signal obtained positively correlates with the kinase activity.
(§2) The test compounds are prepared as a serial dilution of 10 point dose responses with ⅕ dilution steps in 100% DMSO starting from 2 mM highest concentration, diluted 1/20 in water and […] is transferred to the assay plates (PerkinElmer Inc., Cat #6007290).
(§3) 1% DMSO and 10 μM staurosporine final concentrations are used as negative and positive controls.
(§4) 2 μL enzyme-substrate mixture is added to the assay plates.
(§5) The reaction is started by adding 2 μL diluted ATP on the assay plates. Plates are centrifuged for a few seconds at 1000 rpm and gently shaken for 2 min followed by an incubation at RT for 120 min.
(§6) The reactions are stopped and the unconsumed ATP is depleted by adding 5 μL ADP-Glo Reagent (Promega, Cat #V9121B) to the reaction. The plates are centrifuged for a few seconds at 1000 rpm and incubated at RT for […] (ATP depletion).
(§7) The ADP is converted to ATP and luciferase and luciferin is introduced to detect ATP by adding 10 μL Kinase Detection Reagent (Promega, Cat #V913B+V914r) to the reaction. The plates are centrifuged for a few seconds at 1000 rpm and incubated at RT for 30 min (ADP detection).
(§8) Luminescence is measured on an Envision plate reader (PerkinElmer Inc.).
(§9) Raw data are generated following the read-out performed on the TopCount, plotted to generate dose response curves to calculate percentage inhibition (PIN) and average IC50 for each SIK homologue which are reported in the table below.

[1] = test system: LPS-induced TNFα in monocytes; assay: Monocytes assay: LPS-triggered TNFα (ELISA); type: cell-based; settings: Homo sapiens, Monocyte, LPS 200 ng/mL, supernatant after 4 h
Procedure: SIK inhibition inhibits TNFα and increases IL-10 release in LPS triggered monocyte-derived macrophages (MdM) and dendritic cells (MdDCs) (Clark et al. 2012; Sundberg et al. 2014; Ozanne et al. 2015). This assay evaluates illustrative compounds of the invention for their inhibition of LPS-induced TNFα and LPS triggered IL-10 secretion in monocytes.
PBMCs are isolated from human blood samples (buffycoats). The buffy coat is aseptically transferred into a 50 mL Falcon tube, and diluted ½ in PBS. Falcon tubes are filled with 20 mL Lymphoprep™, on top of which 25 mL of the buffy coat is carefully added, tubes are centrifuged for 35 min at 400 g in temperature controlled centrifuge, without brake, at 25° C. PBMCs are aspirated from the white interface layer between sample and Lymphoprep™. PBMCs are washed five times in PBS. Cells are resuspended in RPMI 1640 complete medium supplemented with 10% FBS, 1% P/S, and cell density is determined using a hematologic analyzer (Sysmex XS-500i).
PBMCs are centrifuged at 300×g for 10 min and resuspended at a density of 1.0*10^7 cells/80 μL Miltenyi buffer (PBS, pH 7.4, 1% FBS, 2 mM EDTA).
Starting from this point of the protocol all steps are performed on ice. 20 μL of CD14+ micro-beads are added per 1.0*10^7 cells, the tube is mixed and incubated for 15 min in the fridge at 4° C. Cell suspension volume is adjusted to total volume of 100 mL using Miltenyi buffer, mixed gently and subsequently centrifuged for 10 min at 300×g. Supernatant is discarded and cell pellet is resuspended in 12 mL of Miltenyi buffer.
Four LS columns are placed in the MACS Separator (magnet) from Miltenyi Biotec, and are prewet by rinsing with 3 mL of MACS buffer per column. Three mL of cell suspension is added onto the column (max 1*10^8 of labelled cells/column), and columns are subsequently washed 3 times with 3 mL of Miltenyi buffer.
The columns are removed from the magnets, and 5 mL of Miltenyi buffer are added to the column to flush out the CD14+ fraction by pushing the plunger into the column. The flushed fractions are collected in a fresh 50 mL Falcon and volume is adjusted to 30 mL using Miltenyi buffer, cells are centrifuged for 10 min at 300×g. The obtained cell pellet is resuspended in 10 mL RPMI w/o FBS, and cell density is determined using a hematologic analyser (Sysmex XS-500i). 100 000 cells are seeded in 80 μL per well of a 96-well plate in RPMI 1640 medium supplemented with 10% FBS, 1% P/S.
A compound dilution plate is made in 100% DMSO by 3-fold dilution of 10 mM stock solution. An intermediate dilution plate (10× final concentration) is made by diluting the compound dilution plate 50-fold in RPMI medium.
10 μL of the 10× final concentration compound is added to the cells and incubated for 1 h at 37° C. before addition of trigger. […]

SIK3 = target: T2, SIK3 (Homo sapiens, UniProt Q9Y2K2); assay: ADP-Glo kinase assay, SIK3; type: biochemical; settings: AMARA peptide 45 μM, 5 μM ATP, 120 min
T2 construct: purchased SignalChem S12-11G-100
From the text: as §1, §2, §3, §4, §5, §6, §7, §8, §9

T2 sequence (Q9Y2K2 whole entry): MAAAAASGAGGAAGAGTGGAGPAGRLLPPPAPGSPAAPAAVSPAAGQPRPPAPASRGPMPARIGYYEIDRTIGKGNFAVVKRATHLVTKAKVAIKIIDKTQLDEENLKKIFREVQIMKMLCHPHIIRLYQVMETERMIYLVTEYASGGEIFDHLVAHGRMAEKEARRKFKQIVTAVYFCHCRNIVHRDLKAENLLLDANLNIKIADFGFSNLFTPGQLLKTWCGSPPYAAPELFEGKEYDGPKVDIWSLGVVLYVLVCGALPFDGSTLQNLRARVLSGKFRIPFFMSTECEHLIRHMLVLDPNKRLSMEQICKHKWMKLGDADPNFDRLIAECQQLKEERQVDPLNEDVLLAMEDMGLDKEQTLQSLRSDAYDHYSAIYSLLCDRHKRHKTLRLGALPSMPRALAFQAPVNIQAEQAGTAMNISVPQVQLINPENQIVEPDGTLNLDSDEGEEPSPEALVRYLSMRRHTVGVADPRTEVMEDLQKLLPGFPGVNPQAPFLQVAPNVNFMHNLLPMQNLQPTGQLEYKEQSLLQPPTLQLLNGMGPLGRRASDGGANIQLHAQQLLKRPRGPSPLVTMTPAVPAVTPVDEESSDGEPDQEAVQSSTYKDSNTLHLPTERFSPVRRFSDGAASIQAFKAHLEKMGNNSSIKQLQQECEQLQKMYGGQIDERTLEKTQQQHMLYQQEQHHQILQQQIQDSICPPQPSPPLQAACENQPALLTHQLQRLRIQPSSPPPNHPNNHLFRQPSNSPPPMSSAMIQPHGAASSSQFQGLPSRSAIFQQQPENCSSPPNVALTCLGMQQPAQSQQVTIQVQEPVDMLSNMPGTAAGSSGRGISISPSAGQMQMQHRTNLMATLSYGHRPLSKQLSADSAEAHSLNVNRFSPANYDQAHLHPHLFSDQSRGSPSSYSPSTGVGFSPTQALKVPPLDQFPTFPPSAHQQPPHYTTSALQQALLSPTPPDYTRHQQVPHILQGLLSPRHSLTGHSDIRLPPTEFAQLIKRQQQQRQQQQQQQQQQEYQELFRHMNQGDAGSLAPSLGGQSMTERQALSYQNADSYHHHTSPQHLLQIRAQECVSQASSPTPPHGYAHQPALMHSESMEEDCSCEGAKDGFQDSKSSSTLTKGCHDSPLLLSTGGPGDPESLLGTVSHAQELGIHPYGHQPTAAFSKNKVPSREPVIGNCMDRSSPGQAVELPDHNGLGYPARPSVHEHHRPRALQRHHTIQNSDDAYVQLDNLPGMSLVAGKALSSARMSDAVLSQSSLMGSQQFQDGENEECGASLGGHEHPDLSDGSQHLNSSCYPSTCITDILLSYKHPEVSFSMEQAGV
T1 sequence (P57059 whole entry): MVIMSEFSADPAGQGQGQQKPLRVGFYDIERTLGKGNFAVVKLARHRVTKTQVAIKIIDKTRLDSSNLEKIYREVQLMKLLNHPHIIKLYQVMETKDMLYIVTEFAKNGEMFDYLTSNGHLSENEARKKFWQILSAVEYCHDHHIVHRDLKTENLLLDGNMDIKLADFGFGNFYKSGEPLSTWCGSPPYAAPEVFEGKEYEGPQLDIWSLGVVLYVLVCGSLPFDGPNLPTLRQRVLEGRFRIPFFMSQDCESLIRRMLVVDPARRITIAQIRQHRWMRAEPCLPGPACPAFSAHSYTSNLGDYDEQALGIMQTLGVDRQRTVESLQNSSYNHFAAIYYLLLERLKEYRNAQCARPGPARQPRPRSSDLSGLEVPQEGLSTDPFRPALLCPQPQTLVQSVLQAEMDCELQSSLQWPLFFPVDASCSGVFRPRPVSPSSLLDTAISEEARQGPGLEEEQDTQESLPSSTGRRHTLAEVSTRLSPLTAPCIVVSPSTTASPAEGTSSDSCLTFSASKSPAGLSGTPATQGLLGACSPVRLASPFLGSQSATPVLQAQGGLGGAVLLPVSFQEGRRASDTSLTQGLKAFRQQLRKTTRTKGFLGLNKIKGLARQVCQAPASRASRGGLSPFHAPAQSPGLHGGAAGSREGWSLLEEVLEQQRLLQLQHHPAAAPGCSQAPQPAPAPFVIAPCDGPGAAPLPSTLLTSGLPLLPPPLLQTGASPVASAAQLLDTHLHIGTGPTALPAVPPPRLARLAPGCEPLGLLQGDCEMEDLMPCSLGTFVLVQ

Row | Structure (SMILES) | IC50 (SIK1) [nM] | EC50 [1] [nM] | IC50 (SIK3) [nM]
1 | COc1cc(-c2cnn3cc(OCCN4CCOCC4)ccc23)cc2c1C(=O)N(CC(F)(F)F)CC2 [Cpd 1, 8-methoxy-6-[6-(2-morpholinoethoxy)pyrazolo[1,5-a]pyridin-3-yl]-2-(2,2,2-trifluoroethyl)-3,4-dihydroisoquinolin-1-one] | 100 to 500 | 100 to 1000 | 0.01 to 10
2 | COc1cc(-c2cnn3cc(OC(C)(C)CN4CCOCC4)ccc23)cc(OC(F)F)c1C(=O)N[C@@H]1C[C@@H]1F [Cpd 3, 2-(difluoromethoxy)-4-[6-(1,1-dimethyl-2-morpholino-ethoxy)pyrazolo[1,5-a]pyridin-3-yl]-N-[(1R,2S)-2-fluorocyclopropyl]-6-methoxy-benzamide] | > 500 | 100 to 1000 | 10 to 100
3 | COc1cc(-c2cnn3cc(OC(C)(C)CO)ccc23)cc(OC(F)F)c1C(=O)N[C@@H]1C[C@@H]1F [Cpd 2, 2-(difluoromethoxy)-N-[(1R,2S)-2-fluorocyclopropyl]-4-[6-(2-hydroxy-1,1-dimethyl-ethoxy)pyrazolo[1,5-a]pyridin-3-yl]-6-methoxy-benzamide] | > 500 | 100 to 1000 | 0.01 to 10
